From patent US8569301B2, “6, 6-dioxo-6-thia-1, 4-diaza-naphthalenes as herbicides” (Syngenta Limited, priority 2009, dated 2013)

Assays:
Assay type in all cases: in vivo
Conditions in all cases: sprayed after 8 days cultivation, evaluated after 13 days, scores from 10 to 0 (10=total damage to plant; 0=no damage to plant)
SOLNI = assay: Example B1 herbicidal action post-emergence, SOLNI
Method: (§1) Seeds of a variety of test species were sown in standard soil in pots. After 8 days cultivation (post-emergence) under controlled conditions in a glasshouse (at 24/16° C., day/night; 14 hours light; 65% humidity), the plants were sprayed with an aqueous spray solution derived from the formulation of the technical active ingredient in acetone/water (50:50) solution containing 0.5% Tween 20 (polyoxyethelyene sorbitan monolaurate, CAS RN 9005-64-5). The test plants were then grown under controlled conditions in a glasshouse (at 24/16° C., day/night; 14 hours light; 65% humidity) and watered twice daily. After 13 days, the test was evaluated and the assessed scores, from 10 to 0, are tabulated in Table B1 (10=total damage to plant; 0=no damage to plant).

AMARE = assay: Example B1 herbicidal action post-emergence, AMARE
Method: as §1

SETFA = assay: Example B1 herbicidal action post-emergence, SETFA
Method: as §1

ECHCG = assay: Example B1 herbicidal action post-emergence, ECHCG
Method: as §1

IPOHE = assay: Example B1 herbicidal action post-emergence, IPOHE
Method: as §1

Row | Compound | assessed score, application post-emergence, SOLNI (SOLNI; Rate 1000 g/ha) | assessed score, application post-emergence, AMARE (AMARE; Rate 1000 g/ha) | assessed score, application post-emergence, SETFA (SETFA; Rate 1000 g/ha) | assessed score, application post-emergence, ECHCG (ECHCG; Rate 1000 g/ha) | assessed score, application post-emergence, IPOHE (IPOHE; Rate 1000 g/ha) | assessed score, application post-emergence, SOLNI (SOLNI; Rate 250 g/ha) | assessed score, application post-emergence, AMARE (AMARE; Rate 250 g/ha) | assessed score, application post-emergence, SETFA (SETFA; Rate 250 g/ha) | assessed score, application post-emergence, ECHCG (ECHCG; Rate 250 g/ha) | assessed score, application post-emergence, IPOHE (IPOHE; Rate 250 g/ha)
1 | C#CCC1c2nccnc2C(O)=C(c2c(Cl)cccc2C(F)(F)F)S1(=O)=O (racemic) [Compound E2] | 8 | 10 | 8 | 8 | 8 |  |  |  |  | 
2 | CC1c2nccnc2C(O)=C(c2c(Cl)cccc2C(F)(F)F)S1(=O)=O (racemic) [Compound E3] | 8 | 9 | 8 | 8 | 8 |  |  |  |  | 
3 | O=S1(=O)C(c2c(Cl)cccc2C(F)(F)F)=C(O)c2nccnc2C1CC(F)F (racemic) [Compound E4] | 8 | 9 | 6 | 6 | 7 |  |  |  |  | 
4 | CCC1c2nccnc2C(O)=C(c2cc(Cl)ccc2C(F)(F)F)S1(=O)=O (racemic) [Compound E6] | 8 | 8 | 3 | 5 | 7 |  |  |  |  | 
5 | O=S1(=O)C(c2cc(Cl)ccc2C(F)(F)F)=C(O)c2nccnc2C1CC(F)F (racemic) [Compound E7] |  |  |  |  |  | 7 | 6 | 2 | 2 | 7
6 | O=S1(=O)Cc2nccnc2C(O)=C1c1c(F)ccc(Cl)c1Cl [Compound C1, 7-(2,3-dichloro-6-fluoro-phenyl)-6,6-dioxo-5,6-dihydro-6-λ-6-thia-1,4-diaza-naphthalen-8-ol] | 8 | 10 | 8 | 7 | 8 |  |  |  |  | 
7 | O=S1(=O)Cc2nccnc2C(O)=C1c1cc(C(F)(F)F)ccc1Cl [Compound C2] | 0 | 0 | 0 | 0 | 0 |  |  |  |  | 
8 | O=S1(=O)Cc2nccnc2C(O)=C1c1cc(Cl)cc(C(F)(F)F)c1 [Compound C3] | 0 | 0 | 0 | 0 | 0 |  |  |  |  | 
9 | Cc1cccc(F)c1C1=C(O)c2nccnc2CS1(=O)=O [Compound C4] | 4 | 7 | 5 | 3 | 2 |  |  |  |  | 
10 | COc1ccc(Cl)c(C2=C(O)c3nccnc3CS2(=O)=O)c1F [Compound C5] | 4 | 3 | 4 | 1 | 3 |  |  |  |  | 
11 | O=S1(=O)Cc2nccnc2C(O)=C1c1c(F)cccc1C(F)(F)F [Compound C6] | 3 | 4 | 2 | 1 | 0 |  |  |  |  | 
12 | O=S1(=O)Cc2nccnc2C(O)=C1c1cc(Cl)ccc1C(F)(F)F [Compound C7, 7-(5-chloro-2-trifluoromethyl-phenyl)-6,6-dioxo-5,6-dihydro-6-thia-1,4-diaza-naphthalen-8-ol] | 8 | 8 | 8 | 6 | 7 |  |  |  |  | 
13 | O=S1(=O)Cc2nccnc2C(O)=C1c1ccc(F)cc1Cl [Compound C8] | 7 | 5 | 5 | 3 | 1 |  |  |  |  | 
14 | O=S1(=O)Cc2nccnc2C(O)=C1c1ccccc1OC(F)F [Compound C9] | 4 | 6 | 7 | 3 | 1 |  |  |  |  | 
15 | O=S1(=O)Cc2nccnc2C(O)=C1c1cccc(F)c1C(F)(F)F [Compound C10] | 8 | 6 | 6 | 5 | 6 |  |  |  |  | 
16 | O=S1(=O)Cc2nccnc2C(O)=C1c1ccccc1C(F)(F)F [Compound C11] | 7 | 7 | 7 | 5 | 5 |  |  |  |  | 
17 | O=S1(=O)Cc2nccnc2C(O)=C1c1c(F)ccc(F)c1Cl [Compound C12] | 8 | 8 | 6 | 3 | 6 |  |  |  |  | 
18 | O=S1(=O)Cc2nccnc2C(O)=C1c1c(Cl)cccc1C(F)(F)F [Compound C13] | 2 | 8 | 8 | 8 | 8 |  |  |  |  | 
19 | O=S1(=O)Cc2nccnc2C(O)=C1c1ccccc1I [Compound C14] | 7 | 8 | 7 | 7 | 8 |  |  |  |  | 
20 | O=S1(=O)Cc2nccnc2C(O)=C1c1cc(F)ccc1Cl [Compound C15] | 8 | 7 | 6 | 5 | 3 |  |  |  |  | 
21 | O=S1(=O)Cc2nccnc2C(O)=C1c1cc(C(F)(F)F)ccc1C(F)(F)F [Compound C16] | 10 | 9 | 3 | 5 | 7 |  |  |  |  | 
22 | O=S1(=O)Cc2nccnc2C(O)=C1c1ccc(Cl)cc1C(F)(F)F [Compound C17] | 10 | 10 | 8 | 8 | 7 |  |  |  |  | 
23 | O=S1(=O)Cc2nccnc2C(O)=C1c1c(Cl)ccc(Cl)c1Cl [Compound C18] | 8 | 7 | 8 | 8 | 8 |  |  |  |  | 
24 | O=S1(=O)Cc2nccnc2C(O)=C1c1c(Cl)cccc1Cl [Compound C19] | 9 | 7 | 8 | 7 | 8 |  |  |  |  | 
25 | Cc1cc(C)c(C2=C(O)c3nccnc3CS2(=O)=O)c(C)c1 [Compound C20] | 7 | 1 | 4 | 4 | 7 |  |  |  |  | 
26 | O=S1(=O)Cc2nccnc2C(O)=C1c1c(F)ccc(Br)c1Cl [Compound C21, 7-(3-bromo-2-chloro-6-fluoro-phenyl)-6,6-dioxo-5,6-dihydro-6-thia-1,4-diaza-naphthalen-8-ol] | 10 | 9 | 7 | 7 | 8 |  |  |  |  | 
27 | O=S1(=O)Cc2nccnc2C(O)=C1c1ccc(Br)cc1C(F)(F)F [Compound C22] | 9 | 10 | 5 | 5 | 7 |  |  |  |  | 
28 | O=S1(=O)Cc2nccnc2C(O)=C1c1c(Cl)cc(Cl)cc1Cl [Compound C23] | 9 | 8 | 7 | 8 | 8 |  |  |  |  | 
